We go through five compounds from patent US10988523B2, “Modified lipidated Relaxin B chain peptides and their therapeutic use” (Sanofi, priority 2018, dated 2021).

Data set [1] is described as follows: Pharmacokinetic (PK) determination after i.v. or s.c. administration to rats. It counts as in vivo, Sprague Dawley rats. Conditions: Sprague Dawley, Rat PK; for C0 / half-life: iv, 1 mg/kg i.v.; for C0: extrapolated plasma concentration at t=0, read-out: C0; for half-life / Cmax / Tmax / bioavailability: plasma; for half-life: read-out: T½ (converted); for Cmax / Tmax: sc, 3 mg/kg s.c.; for bioavailability: subcutaneous, 3 mg/kg s.c. vs 1 mg/kg i.v., dose-corrected AUC ratio. In a few lines: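 Non-compartmental analysis of plasma LC/MS data (protein precipitation, BLQ taken as zero) gave T½, C0 (i.v.), Cmax/Tmax (s.c.) and F% from dose-corrected AUCs. Dosing: 3 mg/kg s.c. or 1 mg/kg i.v. in PBS to Sprague Dawley rats, purity- and salt-corrected.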

The target of data set [2] is T1, RXFP1 (Homo sapiens, UniProt Q9HBX9).
T1 construct: OVCAR5 cells expressing endogenous RXFP1; endogenous in cells; host or cells: OVCAR5 cells
T1 sequence (Q9HBX9 1-757): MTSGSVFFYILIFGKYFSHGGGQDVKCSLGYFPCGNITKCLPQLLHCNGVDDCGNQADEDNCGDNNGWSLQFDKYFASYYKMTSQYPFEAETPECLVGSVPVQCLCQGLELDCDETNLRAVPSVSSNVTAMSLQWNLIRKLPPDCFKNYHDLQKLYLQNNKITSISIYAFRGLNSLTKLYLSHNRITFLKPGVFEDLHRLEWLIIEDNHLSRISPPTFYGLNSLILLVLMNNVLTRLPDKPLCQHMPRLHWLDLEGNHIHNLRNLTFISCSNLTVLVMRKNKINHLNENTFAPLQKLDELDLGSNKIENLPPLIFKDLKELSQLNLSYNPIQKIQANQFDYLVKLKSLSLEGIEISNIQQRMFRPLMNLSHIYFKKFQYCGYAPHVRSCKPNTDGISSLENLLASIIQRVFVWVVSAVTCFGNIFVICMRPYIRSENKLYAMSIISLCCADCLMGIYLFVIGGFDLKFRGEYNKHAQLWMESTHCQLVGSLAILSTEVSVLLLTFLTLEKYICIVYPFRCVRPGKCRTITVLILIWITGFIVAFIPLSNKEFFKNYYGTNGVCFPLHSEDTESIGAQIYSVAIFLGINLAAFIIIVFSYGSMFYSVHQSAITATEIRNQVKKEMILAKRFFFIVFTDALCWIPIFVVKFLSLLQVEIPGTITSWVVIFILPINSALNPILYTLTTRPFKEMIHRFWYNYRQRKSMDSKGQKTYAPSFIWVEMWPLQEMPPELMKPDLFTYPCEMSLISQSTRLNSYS
Description: OVCAR5 cAMP assay (HTRF), RXFP1 agonist activity. In kind it is cell-based. Particulars: for EC50: OVCAR5 cells, cAMP HTRF, read-out: EC50 (nM), OVCAR 5 cells (cAMP); for Emax: OVCAR-5, maximal cAMP relative to H2-relaxin maximum (100%), read-out: EMax, OVCAR 5 cells (cAMP). Summed up: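 cAMP accumulation readout: after 1 mM IBMX for 40 min, endogenous-RXFP1 OVCAR5 cells got rising peptide concentrations without FCS, 30 min, 37° C, then lysis with HTRF cAMP reagents. Nonlinear regression gave EC50; Emax expressed relative to H2-relaxin maximum, same occasion.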
In general terms: Cyclic AMP is a second messenger, typically raised through Gs and lowered through Gi signalling.

The structures appear in SMILES notation. *1 amine or outer side, *2 acyl side, *3 side chain or, on linkers, in order; H or OH if unused. Where a SMILES comes first, the peptide text is derived from it. Side-chain parts run from the residue outwards. [ ]: non-standard residue; d: D form. The star is where a group is joined. PEG12 = NCCOCCOCCOCCOCCOCCOCCOCCOCCOCCOCCOCCOCCC(=O)O; γGlu = O=C(O)[C@H](CCC(=O)[*:2])N[*:1]; Stearoyl = CCCCCCCCCCCCCCCCCC(=O)*; Palmitoyl = CCCCCCCCCCCCCCCC(=O)*; αMeK = C[C@](N)(CCCCN)C(=O)O; Nle = CCCC[C@H](N)C(=O)O; AEEA = NCCOCCOCC(=O)O; Aib = CC(C)(N)C(=O)O

As to `CCCCCCCCCCCCCCCCCC(=O)N[C@@H](CCC(=O)NCCOCCOCC(=O)N[C@@H](CCC(=O)N[C@@H](CCC(=O)N[C@@H](CCC(=O)NCCOCCOCC(=O)NCCOCCOCC(=O)NCCCC[C@H](NC(=O)[C@H](CCCCN)NC(=O)[C@H](CCCCN)NC(=O)[C@H](CCCNC(=N)N)NC(=O)C(C)(C)NC(=O)[C@H](CO)NC(=O)[C@H](Cc1c[nH]c2ccccc12)NC(=O)[C@@H](NC(=O)[C@H](CO)NC(=O)[C@H](CCCC)NC(=O)CNC(=O)[C@H](CCC(=O)O)NC(=O)C(C)(C)NC(=O)C(C)(C)NC(=O)[C@@H](NC(=O)[C@H](CCCCNC(C)=O)NC(=O)[C@H](C)NC(=O)[C@H](CCCNC(=N)N)NC(=O)[C@@H](NC(=O)[C@H](CCCCN)NC(=O)[C@H](CCC(=O)O)NC(=O)[C@H](CCCNC(=N)N)NC(=O)CNC(=O)[C@H](CCC(=O)O)NC(=O)[C@H](CC(C)C)NC(C)=O)C(C)C)[C@@H](C)CC)[C@@H](C)O)C(N)=O)C(=O)O)C(=O)O)C(=O)O)C(=O)O` [compound 102] (Ac-LEGREKVRAK(Ac)I[Aib][Aib]EG[Nle]STWS[Aib]RKKK([AEEA-AEEA-γGlu-γGlu-γGlu-AEEA-γGlu-Stearoyl])-NH2), in data set [1], the C0 is 4250 nM, the half-life is 1.16 h, the maximum concentration (Cmax) is 1450 nM and the Tmax stood at 8 h. Further, the bioavailability in data set [1] worked out at 78%. In data set [2], the concentration for a half-maximal effect (EC50) worked out at 0.08 nM and the maximal effect (Emax) is 80%.
Consider `CCCCCCCCCCCCCCCCCC(=O)N[C@@H](CCC(=O)N[C@@H](CCC(=O)N[C@@H](CCC(=O)N[C@@H](CCC(=O)NCCOCCOCC(=O)NCCOCCOCC(=O)NCCOCCOCC(=O)NCCCC[C@H](NC(=O)[C@H](CCCCNC(C)=O)NC(=O)[C@H](CCCCN)NC(=O)[C@H](CCCNC(=N)N)NC(=O)[C@](C)(CCCCN)NC(=O)[C@H](CO)NC(=O)[C@H](Cc1c[nH]c2ccccc12)NC(=O)[C@@H](NC(=O)[C@H](CO)NC(=O)[C@H](CCCC)NC(=O)CNC(=O)[C@H](CCC(=O)O)NC(=O)C(C)(C)NC(=O)C(C)(C)NC(=O)[C@@H](NC(=O)[C@H](CCCCNC(C)=O)NC(=O)[C@H](C)NC(=O)[C@H](CCCNC(=N)N)NC(=O)[C@@H](NC(=O)[C@H](CCCCN)NC(=O)[C@H](CCC(=O)O)NC(=O)[C@H](CCCNC(=N)N)NC(=O)CNC(=O)[C@H](CCC(=O)O)NC(=O)[C@H](CC(C)C)NC(C)=O)C(C)C)[C@@H](C)CC)[C@@H](C)O)C(N)=O)C(=O)O)C(=O)O)C(=O)O)C(=O)O` [compound 82] (Ac-LEGREKVRAK(Ac)I[Aib][Aib]EG[Nle]STWS[αMeK]RKK(Ac)K([AEEA-AEEA-AEEA-γGlu-γGlu-γGlu-γGlu-Stearoyl])-NH2), for which, in data set [1], the C0 is 2600 nM, the half-life was 3.4 h, the highest concentration (Cmax) is 1200 nM and the Tmax amounted to 7 h. Besides, in data set [1], the bioavailability is 114%. Besides, in data set [2], the 50% effective concentration (EC50) came out at 0.02 nM and the Emax was 89%.
In the case of `CCCCCCCCCCCCCCCCCC(=O)N[C@@H](CCC(=O)N[C@@H](CCC(=O)N[C@@H](CCC(=O)N[C@@H](CCC(=O)NCCCC[C@H](NC(=O)COCCOCCNC(=O)COCCOCCNC(=O)COCCOCCNC(=O)[C@H](CCCCNC(C)=O)NC(=O)[C@H](CCCCN)NC(=O)[C@H](CCCNC(=N)N)NC(=O)[C@](C)(CCCCN)NC(=O)[C@H](CO)NC(=O)[C@H](Cc1c[nH]c2ccccc12)NC(=O)[C@@H](NC(=O)[C@H](CO)NC(=O)[C@H](CCCC)NC(=O)CNC(=O)[C@H](CCC(=O)O)NC(=O)C(C)(C)NC(=O)C(C)(C)NC(=O)[C@@H](NC(=O)[C@H](CCCCNC(C)=O)NC(=O)[C@H](C)NC(=O)[C@H](CCCNC(=N)N)NC(=O)[C@@H](NC(=O)[C@H](CCCCN)NC(=O)[C@H](CCC(=O)O)NC(=O)[C@H](CCCNC(=N)N)NC(=O)CNC(=O)[C@H](CCC(=O)O)NC(=O)[C@H](CC(C)C)NC(C)=O)C(C)C)[C@@H](C)CC)[C@@H](C)O)C(N)=O)C(=O)O)C(=O)O)C(=O)O)C(=O)O` [compound 16] (Ac-LEGREKVRAK(Ac)I[Aib][Aib]EG[Nle]STWS[αMeK]RKK(Ac)[AEEA][AEEA][AEEA]K([γGlu-γGlu-γGlu-γGlu-Stearoyl])-NH2), in data set [1], the C0 is 2650 nM, the half-life was 3.38 h, the peak level (Cmax) was 1880 nM and the Tmax is 8 h. Also, in data set [1], the bioavailability is 53%. Also, in data set [2], the concentration for a half-maximal effect (EC50) is 0.02 nM and the Emax amounted to 87%.
As for `CCCCCCCCCCCCCCCC(=O)N[C@@H](CCC(=O)N[C@@H](CCC(=O)N[C@@H](CCC(=O)NCCCC[C@H](NC(=O)CCOCCOCCOCCOCCOCCOCCOCCOCCOCCOCCOCCOCCNC(=O)[C@H](CCCCNC(C)=O)NC(=O)[C@H](CCCCN)NC(=O)[C@H](CCCNC(=N)N)NC(=O)C(C)(C)NC(=O)[C@H](CO)NC(=O)[C@H](Cc1c[nH]c2ccccc12)NC(=O)[C@@H](NC(=O)[C@H](CO)NC(=O)[C@H](CCCC)NC(=O)CNC(=O)[C@H](CCC(=O)O)NC(=O)C(C)(C)NC(=O)C(C)(C)NC(=O)[C@@H](NC(=O)[C@H](CCCCNC(C)=O)NC(=O)[C@H](C)NC(=O)[C@H](CCCNC(=N)N)NC(=O)[C@@H](NC(=O)[C@H](CCCCN)NC(=O)[C@H](CCC(=O)O)NC(=O)[C@H](CCCNC(=N)N)NC(=O)CNC(=O)[C@H](CCC(=O)O)NC(=O)[C@H](CC(C)C)NC(C)=O)C(C)C)[C@@H](C)CC)[C@@H](C)O)C(N)=O)C(=O)O)C(=O)O)C(=O)O` [compound 26] (Ac-LEGREKVRAK(Ac)I[Aib][Aib]EG[Nle]STWS[Aib]RKK(Ac)[PEG12]K([γGlu-γGlu-γGlu-Palmitoyl])-NH2), in data set [1], the C0 is 2330 nM, the half-life is 5.8 h, the Cmax amounted to 770 nM and the Tmax was 8 h. The bioavailability in data set [1] stood at 72%. Further, in data set [2], the EC50 is 0.57 nM and the Emax was determined as 85%.
`CCCCCCCCCCCCCCCCCC(=O)N[C@@H](CCC(=O)N[C@@H](CCC(=O)N[C@@H](CCC(=O)N[C@@H](CCC(=O)NCCCC[C@H](NC(=O)CCOCCOCCOCCOCCOCCOCCOCCOCCOCCOCCOCCOCCNC(=O)[C@H](CCCCNC(C)=O)NC(=O)[C@H](CCCCN)NC(=O)[C@H](CCCNC(=N)N)NC(=O)[C@](C)(CCCCN)NC(=O)[C@H](CO)NC(=O)[C@H](Cc1c[nH]c2ccccc12)NC(=O)[C@@H](NC(=O)[C@H](CO)NC(=O)[C@H](CCCC)NC(=O)CNC(=O)[C@H](CCC(=O)O)NC(=O)C(C)(C)NC(=O)C(C)(C)NC(=O)[C@@H](NC(=O)[C@H](CCCCNC(C)=O)NC(=O)[C@H](C)NC(=O)[C@H](CCCNC(=N)N)NC(=O)[C@@H](NC(=O)[C@H](CCCCN)NC(=O)[C@H](CCC(=O)O)NC(=O)[C@H](CCCNC(=N)N)NC(=O)CNC(=O)[C@H](CCC(=O)O)NC(=O)[C@H](CC(C)C)NC(C)=O)C(C)C)[C@@H](C)CC)[C@@H](C)O)C(N)=O)C(=O)O)C(=O)O)C(=O)O)C(=O)O` [compound 42] (Ac-LEGREKVRAK(Ac)I[Aib][Aib]EG[Nle]STWS[αMeK]RKK(Ac)[PEG12]K([γGlu-γGlu-γGlu-γGlu-Stearoyl])-NH2): in data set [1], the C0 was 3000 nM, the half-life is 3.7 h, the peak concentration (Cmax) came to 2000 nM and the Tmax is 5 h. Moreover, in data set [1], the bioavailability turned out to be 65%. Also, in data set [2], the EC50 is 0.01 nM and the Emax was 91%.

For orientation: Cmax means the highest concentration seen after dosing. What is called Tmax is the time from dosing to the highest level. For orientation: EC50 means the concentration needed to bring the measured effect to its halfway point. The term Emax denotes the maximal effect, on the per cent scale that the assay sets.
